Data: patent US4918105A, “Novel compounds with collagenase-inhibiting activity, a process for their preparation and pharmaceutical compositions in which these compounds are present” (SA Laboratoire Roger Bellon, priority 1987, dated 1990)
Like-named read-outs stand apart in the source and are kept apart here.

Legend:
Porcine collagenase = biological target: T1, Porcine collagenase (Sus scrofa, UniProt P21692); assay: Specificity of the inhibition: porcine collagenase; type: biochemical; details: for inhibition at 10 µM: 10^-5 M; for inhibition at 0.1 µM: 10^-7 M
T1 construct: isolated from synovial cells in culture; endogenous in cells; host or cells: porcine synovial cells in culture
T1 sequence (P21692 100-469): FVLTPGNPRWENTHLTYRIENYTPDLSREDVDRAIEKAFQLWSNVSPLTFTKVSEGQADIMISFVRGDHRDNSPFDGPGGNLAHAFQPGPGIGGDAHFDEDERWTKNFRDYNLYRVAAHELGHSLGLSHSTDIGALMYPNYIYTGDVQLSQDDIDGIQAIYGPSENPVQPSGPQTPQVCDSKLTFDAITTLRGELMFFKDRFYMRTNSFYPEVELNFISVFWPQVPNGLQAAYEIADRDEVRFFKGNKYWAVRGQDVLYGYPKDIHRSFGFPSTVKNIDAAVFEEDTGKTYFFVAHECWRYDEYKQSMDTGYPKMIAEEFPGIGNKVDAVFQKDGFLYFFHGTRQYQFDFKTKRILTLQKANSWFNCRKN
Procedure: (§1) The anticollagenase activity of the compounds according to the present invention was determined on synovial collagenase of porcine or human origin, isolated from synovial cells in culture according to the procedure described by Cawston and Barrett (Cawston and Barrett (1979), Anal. Biochem. 99, 340-345). The collagenase was incubated at 37° C. with radiolabeled collagen and its activity was determined by the release of the soluble peptides produced by enzymatic degradation of the collagen. The inhibitory concentration IC50 for each compound was determined by measuring the activity of the enzyme in the presence of the inhibitor at a concentration of between 10^-5 and 10^-8 M.
(§2) The specificity of the inhibition was measured by studying several other enzymes, including metalloporteases other than collagenase.

Human collagenase = biological target: T2, Human collagenase (Homo sapiens, UniProt P03956); assay: Specificity of the inhibition: human collagenase; type: biochemical; details: for inhibition at 10 µM: 10^-5 M; for inhibition at 0.1 µM: 10^-7 M
T2 construct: isolated from synovial cells in culture; endogenous in cells; host or cells: human synovial cells in culture
T2 sequence (P03956 100-469): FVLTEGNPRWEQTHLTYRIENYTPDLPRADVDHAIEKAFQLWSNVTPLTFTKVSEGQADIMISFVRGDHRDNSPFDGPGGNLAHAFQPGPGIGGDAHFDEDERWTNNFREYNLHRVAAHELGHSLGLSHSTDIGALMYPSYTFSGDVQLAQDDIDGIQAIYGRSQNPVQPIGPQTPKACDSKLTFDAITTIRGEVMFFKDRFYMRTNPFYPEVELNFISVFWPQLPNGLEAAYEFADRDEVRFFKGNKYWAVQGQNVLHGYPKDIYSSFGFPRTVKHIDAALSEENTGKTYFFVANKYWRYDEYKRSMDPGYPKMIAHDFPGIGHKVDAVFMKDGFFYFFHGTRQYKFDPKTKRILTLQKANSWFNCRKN
Procedure: as §1, §2

ACE = ACE (Homo sapiens, UniProt P12821); assay: Specificity of the inhibition: ACE; type: biochemical; details: for inhibition at 10 µM: 10^-5 M; for inhibition at 0.1 µM: 10^-7 M
ACE, sequence (P12821 30-1306, species assumed): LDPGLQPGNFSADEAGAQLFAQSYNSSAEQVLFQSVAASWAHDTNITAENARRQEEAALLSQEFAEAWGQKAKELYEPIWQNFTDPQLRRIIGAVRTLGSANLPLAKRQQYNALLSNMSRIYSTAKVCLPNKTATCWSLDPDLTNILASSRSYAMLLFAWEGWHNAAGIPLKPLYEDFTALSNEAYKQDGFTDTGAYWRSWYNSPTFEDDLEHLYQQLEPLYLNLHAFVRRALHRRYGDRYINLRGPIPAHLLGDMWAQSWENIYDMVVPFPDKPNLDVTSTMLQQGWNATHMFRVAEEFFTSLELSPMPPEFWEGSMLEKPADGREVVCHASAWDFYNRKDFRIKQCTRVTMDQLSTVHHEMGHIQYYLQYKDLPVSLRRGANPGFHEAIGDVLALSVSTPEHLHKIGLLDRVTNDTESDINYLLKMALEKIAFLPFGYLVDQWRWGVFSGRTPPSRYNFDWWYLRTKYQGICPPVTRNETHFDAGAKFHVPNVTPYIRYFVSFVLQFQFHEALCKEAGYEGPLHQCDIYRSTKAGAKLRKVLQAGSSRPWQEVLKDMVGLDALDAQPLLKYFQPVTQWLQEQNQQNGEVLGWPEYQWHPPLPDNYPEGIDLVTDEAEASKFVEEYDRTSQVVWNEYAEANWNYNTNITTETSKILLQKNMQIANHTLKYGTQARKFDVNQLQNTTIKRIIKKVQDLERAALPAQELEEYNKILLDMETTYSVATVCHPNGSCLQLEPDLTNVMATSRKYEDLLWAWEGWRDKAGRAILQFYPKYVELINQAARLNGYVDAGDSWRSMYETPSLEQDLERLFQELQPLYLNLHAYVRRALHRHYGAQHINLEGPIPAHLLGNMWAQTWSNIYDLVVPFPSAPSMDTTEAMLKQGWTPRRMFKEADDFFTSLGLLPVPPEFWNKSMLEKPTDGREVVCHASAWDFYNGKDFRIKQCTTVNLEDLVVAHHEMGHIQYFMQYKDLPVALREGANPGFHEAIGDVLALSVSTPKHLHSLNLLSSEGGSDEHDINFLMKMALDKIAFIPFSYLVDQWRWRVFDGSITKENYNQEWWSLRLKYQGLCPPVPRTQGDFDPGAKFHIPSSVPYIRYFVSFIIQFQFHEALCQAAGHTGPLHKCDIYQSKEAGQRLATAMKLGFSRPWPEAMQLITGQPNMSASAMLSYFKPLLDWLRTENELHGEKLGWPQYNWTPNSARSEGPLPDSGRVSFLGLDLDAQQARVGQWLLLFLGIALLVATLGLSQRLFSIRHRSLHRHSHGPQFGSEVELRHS
Procedure: as §2

Carboxypeptidase A = biological target: T3, Carboxypeptidase A (Bos taurus, UniProt P00730); assay: Specificity of the inhibition: carboxypeptidase A; type: biochemical; details: for inhibition at 10 µM: 10^-5 M; for inhibition at 0.1 µM: 10^-7 M
T3 sequence (P00730 111-419): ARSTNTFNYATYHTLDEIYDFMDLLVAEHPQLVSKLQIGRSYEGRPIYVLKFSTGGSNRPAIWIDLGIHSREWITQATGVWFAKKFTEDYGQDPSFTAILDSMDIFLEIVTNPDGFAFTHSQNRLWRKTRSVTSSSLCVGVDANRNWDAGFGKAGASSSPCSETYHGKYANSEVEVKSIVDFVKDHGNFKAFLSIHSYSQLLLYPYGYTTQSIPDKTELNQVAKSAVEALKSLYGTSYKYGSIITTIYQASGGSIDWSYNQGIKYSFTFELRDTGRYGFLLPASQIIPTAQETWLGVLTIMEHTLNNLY
Procedure: as §2

Carboxypeptidase B = biological target: T4, Carboxypeptidase B (Sus scrofa, UniProt P09955); assay: Specificity of the inhibition: carboxypeptidase B; type: biochemical; details: for inhibition at 10 µM: 10^-5 M; for inhibition at 0.1 µM: 10^-7 M
T4 sequence (P09955 111-416): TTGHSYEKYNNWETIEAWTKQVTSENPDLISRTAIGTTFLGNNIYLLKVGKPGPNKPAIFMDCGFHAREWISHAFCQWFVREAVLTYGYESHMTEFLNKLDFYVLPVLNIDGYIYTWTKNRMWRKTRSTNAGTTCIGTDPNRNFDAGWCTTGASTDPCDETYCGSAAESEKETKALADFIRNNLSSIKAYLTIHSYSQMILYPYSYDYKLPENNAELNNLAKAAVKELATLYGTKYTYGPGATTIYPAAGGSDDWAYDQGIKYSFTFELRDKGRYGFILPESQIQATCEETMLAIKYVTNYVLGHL
Procedure: as §2

α-Chymotrypsin = α-Chymotrypsin (Bos taurus, UniProt P00766); assay: Specificity of the inhibition: α-chymotrypsin; type: biochemical; details: for inhibition at 10 µM: 10^-5 M; for inhibition at 0.1 µM: 10^-7 M
Procedure: as §2

Plasmin = Plasmin (Homo sapiens, UniProt P00747); assay: Specificity of the inhibition: plasmin; type: biochemical; details: for inhibition at 10 µM: 10^-5 M; for inhibition at 0.1 µM: 10^-7 M
Plasmin, sequence (P00747 581-810 limits assumed, species assumed): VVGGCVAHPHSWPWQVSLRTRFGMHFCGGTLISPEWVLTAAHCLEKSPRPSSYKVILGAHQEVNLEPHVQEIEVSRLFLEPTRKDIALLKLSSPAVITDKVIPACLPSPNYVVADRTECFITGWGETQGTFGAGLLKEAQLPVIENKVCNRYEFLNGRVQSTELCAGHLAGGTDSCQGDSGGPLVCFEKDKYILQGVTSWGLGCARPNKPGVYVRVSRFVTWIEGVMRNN
Plasmin, sequence (P00747 97-580 partner limits assumed, species assumed): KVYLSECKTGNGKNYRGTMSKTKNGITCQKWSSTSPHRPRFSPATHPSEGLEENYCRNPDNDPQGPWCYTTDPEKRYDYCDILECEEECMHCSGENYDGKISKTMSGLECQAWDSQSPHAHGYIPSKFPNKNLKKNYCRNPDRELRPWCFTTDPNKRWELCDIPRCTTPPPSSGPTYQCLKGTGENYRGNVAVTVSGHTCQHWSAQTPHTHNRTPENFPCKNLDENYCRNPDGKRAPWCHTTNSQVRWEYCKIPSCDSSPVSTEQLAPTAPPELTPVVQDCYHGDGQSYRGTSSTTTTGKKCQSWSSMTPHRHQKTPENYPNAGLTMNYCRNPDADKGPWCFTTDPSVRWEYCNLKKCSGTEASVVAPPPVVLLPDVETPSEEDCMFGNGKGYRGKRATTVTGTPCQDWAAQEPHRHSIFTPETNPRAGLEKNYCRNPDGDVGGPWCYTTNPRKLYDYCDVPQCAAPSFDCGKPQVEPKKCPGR
Procedure: as §2

Thrombin = Thrombin (Homo sapiens, UniProt P00734); assay: Specificity of the inhibition: thrombin; type: biochemical; details: for inhibition at 10 µM: 10^-5 M; for inhibition at 0.1 µM: 10^-7 M
Procedure: as §2

Trypsin = biological target: T5, Trypsin (Bos taurus, UniProt P00760); assay: Specificity of the inhibition: trypsin; type: biochemical; details: for inhibition at 10 µM: 10^-5 M; for inhibition at 0.1 µM: 10^-7 M
T5 sequence (P00760 24-246): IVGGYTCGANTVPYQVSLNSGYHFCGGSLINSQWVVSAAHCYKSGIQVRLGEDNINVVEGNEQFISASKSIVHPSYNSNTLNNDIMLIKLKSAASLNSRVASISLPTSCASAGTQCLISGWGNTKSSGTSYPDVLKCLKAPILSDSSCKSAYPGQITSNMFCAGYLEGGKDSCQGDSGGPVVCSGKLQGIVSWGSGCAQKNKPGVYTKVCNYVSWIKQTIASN
Procedure: as §2

Papain = biological target: T6, Papain (Carica papaya, UniProt P00784); assay: Specificity of the inhibition: papain; type: biochemical; details: for inhibition at 10 µM: 10^-5 M; for inhibition at 0.1 µM: 10^-7 M
T6 sequence (P00784 134-345): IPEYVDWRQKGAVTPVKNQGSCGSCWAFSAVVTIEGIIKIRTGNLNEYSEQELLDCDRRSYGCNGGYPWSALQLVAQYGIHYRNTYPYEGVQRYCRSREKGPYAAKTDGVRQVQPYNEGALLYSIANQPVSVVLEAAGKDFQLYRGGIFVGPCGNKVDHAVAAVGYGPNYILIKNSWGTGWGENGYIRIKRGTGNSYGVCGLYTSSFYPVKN
Procedure: as §2

Pepsin = Pepsin (Sus scrofa, UniProt P00791); assay: Specificity of the inhibition: pepsin; type: biochemical; details: for inhibition at 10 µM: 10^-5 M; for inhibition at 0.1 µM: 10^-7 M
Pepsin, sequence (P00791 60-385): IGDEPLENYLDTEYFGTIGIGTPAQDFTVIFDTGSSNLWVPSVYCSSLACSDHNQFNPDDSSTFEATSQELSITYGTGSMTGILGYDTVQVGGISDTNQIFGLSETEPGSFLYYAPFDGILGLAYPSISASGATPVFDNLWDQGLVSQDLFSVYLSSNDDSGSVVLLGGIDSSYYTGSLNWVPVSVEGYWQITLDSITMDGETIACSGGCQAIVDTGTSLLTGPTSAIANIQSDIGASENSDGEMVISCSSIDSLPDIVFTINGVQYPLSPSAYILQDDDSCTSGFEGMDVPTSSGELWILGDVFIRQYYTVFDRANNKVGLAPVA
Procedure: as §2

[1] = biological target: synovial collagenase of porcine or human origin; assay: Anticollagenase activity: release of soluble peptides from radiolabeled collagen; type: biochemical
Procedure: as §1
Representative results of these tests are given for the compounds according to the invention in Table I.

bone resorption = assay: Bone resorption model in isolated organ (Ca++ release); type: cell-based
Text: Anticollagenase activity has also been determined in a bone resorption model described by Delaisse et al. (Delaisse et al. (1985), Biochem. Biophys. Res. commun., 133, 483-490). This model, which utilizes the degradation of cartilage and bone in an isolated organ, is more physiological than direct determination of the enzyme activity in vitro. The results of the tests are collated in Table II; the same inhibitors are found to be active in both systems.

[2] = Table I, % inhibition 50, read-out: Concentration for 50 % inhibition (IC50), anticollagenase activity

Row | Compound | inhibition at 10 µM (Porcine collagenase) [%] | inhibition at 0.1 µM (Porcine collagenase) [%] | inhibition at 10 µM (Human collagenase) [%] | inhibition at 0.1 µM (Human collagenase) [%] | inhibition at 10 µM (ACE) [%] | inhibition at 0.1 µM (ACE) [%] | inhibition at 10 µM (Carboxypeptidase A) [%] | inhibition at 0.1 µM (Carboxypeptidase A) [%] | inhibition at 10 µM (Carboxypeptidase B) [%] | inhibition at 0.1 µM (Carboxypeptidase B) [%] | inhibition at 10 µM (α-Chymotrypsin) [%] | inhibition at 0.1 µM (α-Chymotrypsin) [%] | inhibition at 10 µM (Plasmin) [%] | inhibition at 0.1 µM (Plasmin) [%] | inhibition at 10 µM (Thrombin) [%] | inhibition at 0.1 µM (Thrombin) [%] | inhibition at 10 µM (Trypsin) [%] | inhibition at 0.1 µM (Trypsin) [%] | inhibition at 10 µM (Papain) [%] | IC50 [1, 2] [nM] | further results
1 | CC(C)CC(CC(=O)NO)C(=O)N[C@H](C(=O)NCc1ccccc1)C(C)C (single isomer, unassigned) [Example 2, N-Benzyl-Nα-(N-hydroxy-2-isobutylsuccinamoyl)-L-valinamide] | 100 | 52 | 100 | 30 | 40 | 4 | 0 | 0 | 0 | 0 | 0 | 0 | 0 | 0 | 5 | 0 | 0 | 0 | 5 |  | inhibition at 0.1 µM (Papain): 0%; inhibition at 10 µM (Pepsin): 19%; inhibition at 0.1 µM (Pepsin): 0%
2 | CC(C)CC(CC(=O)NO)C(=O)N[C@H](C(=O)NCc1ccccc1)C(C)C (single isomer, unassigned) [Example 2, isomer A, N-Benzyl-Nα-(N-hydroxy-2-isobutylsuccinamoyl)-L-valinamide] |  |  |  |  |  |  |  |  |  |  |  |  |  |  |  |  |  |  |  |  | IC50 ([1]; Table II, read-out: collagenase inhibition IC50): 16000 nM; % protection against bone resorption (Ca++ release) (bone resorption; 8 μM): 0%; % protection against bone resorption (Ca++ release) (bone resorption; 25 μM): 0%
3 | CC(C)CC(CC(=O)NO)C(=O)N[C@H](C(=O)NCc1ccccc1)C(C)C (single isomer, unassigned) [Example 3, N-Benzyl-Nα-(N-hydroxy-2-isobutylsuccinamoyl)-L-valinamide, B form] |  |  |  |  |  |  |  |  |  |  |  |  |  |  |  |  |  |  |  | 35 | IC50 ([1]; Table II, listed as Example 2, isomer B, read-out: collagenase inhibition IC50): 35 nM; % protection against bone resorption (Ca++ release) (bone resorption; 8 μM, listed as Example 2, isomer B): 90-100%; % protection against bone resorption (Ca++ release) (bone resorption; 25 μM, listed as Example 2, isomer B): 90-100%
4 | CC(C)CC(CC(=O)NO)C(=O)N[C@H](C(=O)NCc1ccc(C(F)(F)F)cc1)C(C)C (single isomer, unassigned) [Example 4, N-(4-Trifluoromethylbenzyl)-Nα-(N-hydroxy-2-isobutylsuccinamoyl)-L-valinamide, B form] |  |  |  |  |  |  |  |  |  |  |  |  |  |  |  |  |  |  |  | 80 | 
5 | CC(C)CC(CC(=O)NO)C(=O)N[C@H](C(=O)NCCc1ccccc1)C(C)C (single isomer, unassigned) [Example 5, N-Phenethyl-Nα-(N-hydroxy-2-isobutylsuccinamoyl)-L-valinamide, B form] |  |  |  |  |  |  |  |  |  |  |  |  |  |  |  |  |  |  |  | 75 | 
6 | CC(C)CC(CC(=O)NO)C(=O)N[C@H](C(N)=O)C(C)C (stereo partly drawn) [Example 1, Nα-(N-hydroxy-2-isobutylsuccinamoyl)-L-valinamide] | 100 | 23 | 100 | 12 | 4 | 0 | 0 | 0 | 0 | 0 | 0 | 0 | 0 | 0 | 0 | 0 | 0 | 0 | 5 | 320 | inhibition at 0.1 µM (Papain): 0%; inhibition at 10 µM (Pepsin): 19%; inhibition at 0.1 µM (Pepsin): 0%
